Source: US12440440B2, “Dry powder esketamine composition for use in the treatment of bipolar depression by pulmonary administration” (Novohale Therapeutics, LLC, priority 2017, dated 2025)
Counter-ions that a name gives are not always drawn.

Tests used:
[1] = nebulized saline solution, inhalation; cited from earlier work
[2] = cited from earlier work
[3] = cited from earlier work; remark: listed apart in the source
[4] = in vivo; cited from earlier work
[5] = 40-minute i.v. infusion of 0.20 mg/kg or 0.40 mg/kg, TRD patients; cited from earlier work
[6] = Predicted esketamine plasma concentration for 0.20 mg/kg 40 minutes intravenous infusion; type: in vivo; settings: human, 0.2 mg/kg, predicted on the basis of literature data
Protocol: The aim of the study was to determine the amount of puffs needed to obtain plasma concentration similar to that sufficient to achieve antidepressant effect as for 0.20 mg/kg 40 minutes intravenous infusion. It can be predicted on the basis of literature data that this corresponds to concentration at 40 min of infusion between about 60 to 100 ng/ml. It was also the aim to determine the number of puffs that allow to avoid a sharp peak of plasma concentration that is considered an important factor inducing adverse psychomimetic and dissociative effects.

[7] = tested on: NMDA receptor; settings: cited from earlier work
[8] = oral administration of ketamine
[9] = i.v. infusion of racemic ketamine

## CN[C@]1(c2ccccc2Cl)CCCCC1=O [esketamine hydrochloride]
[1]
  inhaled bioavailability: reduced

## CNC1(c2ccccc2Cl)CCCCC1=O (racemic) [ketamine]
[2]; orally administered
  bioavailability: 16-20%
[3]; after i.v. infusion 0.5 mg/kg for 40 minutes
  half-period of concentration fall: below 2 hours
[3]; i.v. infusion 0.5 mg/kg for 40 minutes, maintained for about 40 minutes
  systemic concentration of parent drug: about 200 ng/ml
[4]
  proportion of patients with treatment-resistant depression responsive to treatment: about ⅔

## CN[C@]1(c2ccccc2Cl)CCCCC1=O [esketamine]
[5]
  antidepressant effects: rapid onset of robust antidepressant effects
[6]
  concentration at 40 min: 60 to 100 ng/mL

## NC1(c2ccccc2Cl)CCCCC1=O (stereo not drawn) [norketamine]
[2]; [8]
  AUC for norketamine relative to ketamine: exceeding 1000%
  norketamine level relative to ketamine level: 500-1000%
[3]; [9]
  maximum concentration as level of ketamine concentration: 10-20%
  percentage of AUC norketamine to ketamine: 20-40%
[7]
  activity on NMDA receptor relative to ketamine: many times less active than ketamine
